Data set [1] in a line: Plasma concentration of test compound after oral dosing in rabbits. The format is in vivo, rabbit. The note with it: 4 hours after the last dose; for concentration at 4 h: male, New Zealand, rabbit, plasma, rabbits, oral about 30 mg/kg for 4 days. Here is the method:
(§1) In another group, six adult New Zealand male rabbits (2.5-3.5 kg) were dosed orally (gavage with feeding tube) with the Imwitor/Cremophor/Water vehicle for 4 consecutive days during week 1. The vehicle (10% Imwitor, 20% Cremophor RH40 and 70% water, a light milky compound solution) was given in a total volume of 3 mL/kg per day. On day 4, three hours after oral dosing with vehicle or drug, the rabbits were anesthetized and measured for the vehicle's effect on CEA vessel lumen as described above. After week 1, the rabbits were allowed to recover for 3 days and were then orally dosed with a test compound such as torcetrapib or compound 2 at about 30 mg/kg for 4 consecutive days during week 2. On the 4th day of week 2, rabbit CEA diameter changes in response to test compounds were assessed with infusion of norepinephrine followed by acetylcholine as described above. Rabbits were again allowed to recover for an additional week to allow for drug elimination and were then subjected to daily vehicle dosing and CEA diameter changes in response to test compounds were assessed as described above.
A series of 5 images (approximately 5 minutes apart) of the CEA were taken and used for baseline lumen diameter (mm) and area (mm^2) measurements, respectively. The adrenergic agonist norepinephrine was slowly infused at about 28 μg per minute and maintained for the duration of the procedure. An infusion of acetylcholine was administered in escalating doses at about 10, 17, 30 and 56 μg/min, each for 15 minutes, in conjunction with the infusion of norepinephrine. The images were collected several times during each infusion period of 15 minutes. After the final acetylcholine and concurrent norepinephrine infusion period, all infusions were terminated and the vessel was allowed to return to its original size. About two mL of blood were sampled from the non-imaged contralateral CEA immediately after the last measurement. […] Plasma was kept in −80° C. until analyzed for the concentration of the tested compounds. […]

The subject of data set [2] is central ear artery of a rabbit. As to the kind of experiment: Rabbit central ear artery (CEA) vasomotor response, lumen diameter and area by ultrasonic imaging. The format is in vivo. Conditions: for CEA lumen area after norepinephrine and acetylcholine (acetylcholine-induced vasodilation response) / CEA lumen diameter after norepinephrine and acetylcholine (acetylcholine-induced vasodilation response): norepinephrine-preconstricted CEA; for CEA lumen area after norepinephrine and acetylcholine (acetylcholine-induced vasodilation response): vehicle group 0.6 mm^2; for CEA lumen diameter after norepinephrine and acetylcholine (acetylcholine-induced vasodilation response): vehicle group 0.8 mm. The method, then: A group of six rabbits was anesthetized with a mixture of ketamine (50 mg/kg)/xylazine ([…]) administered intramuscularly and placed on a warming pad to maintain body temperature. Rabbit ear pinnae were shaved and depilitated using an over-the-counter depilatory agent. A segment of about 2 cm of the dorsal surface over the CEA on the right ear was coated with warmed ultrasonic gel. The baseline diameter and area of the rabbit's CEA were evaluated using a 23.5 MHz ultrasonic probe (model RMV 708). The images were recorded on a VISUALSONICS VEVO 600 system where the CEA lumen diameters and areas were subsequently measured. The vessel lumen diameter and area were expressed as mean and standard error of the mean (SEM). Norepinephrine and acetylcholine were infused in the contralateral left ear vein through a 27-gauge butterfly needle infusion set connected to an infusion pump. Images were obtained at about 5 minute intervals throughout the infusion periods.
To confirm that acetylcholine-induced vasodilation was NO-dependent, a second group of six rabbits was dosed with either the nitric oxide synthase inhibitor L-NAME (400 μg/mL) mixed in TANG® flavored drinking water (N=3) or TANG® flavored drinking water alone (N=3) for 5 consecutive days. L-NAME, N(G)-nitro-L-arginine-methyl ester, is an arginine derivative that blocks normal nitric oxide-dependent vasodilation. The rabbit CEA were then imaged on day 6. The rabbits were allowed to recover for about one week and then in crossover fashion each group of 3 was given the opposite treatment for 5 days and then imaged on day 6.
as §1
A series of 5 images (approximately 5 minutes apart) of the CEA were taken and used for baseline lumen diameter (mm) and area (mm^2) measurements, respectively. The adrenergic agonist norepinephrine was slowly infused at about 28 μg per minute and maintained for the duration of the procedure. An infusion of acetylcholine was administered in escalating doses at about 10, 17, 30 and 56 μg/min, each for 15 minutes, in conjunction with the infusion of norepinephrine. The images were collected several times during each infusion period of 15 minutes. After the final acetylcholine and concurrent norepinephrine infusion period, all infusions were terminated and the vessel was allowed to return to its original size. About two mL of blood were sampled from the non-imaged contralateral CEA immediately after the last measurement. All samples were collected into tubes containing EDTA and centrifuged at about 10,000 rpm for 6 minutes. Plasma was kept in −80° C. until analyzed for the concentration of the tested compounds. In addition, blood was taken from a naïve rabbit for generation of a standard drug concentration curve. […]

For a further data set, the system named is systolic blood pressure. Conditions: patients receiving torcetrapib; cited from earlier work.
Where [3] appears, read: oral about 30 mg/kg for 4 days, compared to vehicle.

Regarding `O[C@@H](CN1c2cccc(-c3cccc(OC(F)(F)F)c3)c2CC[C@@H]1c1cccc(OC(F)(F)C(F)F)c1)C(F)(F)F` [Compound 2, 1,1,1-Trifluoro-3-[2-{3-[(1,1,2,2-tetrafluoroethyl)oxy]phenyl}-5-{3-[(trifluoromethyl)oxy]phenyl}-3,4-dihydroquinolin-1(2H)-yl]propan-2-ol], the “plasma concentration of compound 2 relative to torcetrapib” value in data set [1] (same dose and regimen) is “approximately 2.5 fold”. In addition, in data set [1], the concentration at 4 h was 2580 ± 670 nM. The “effect on acetylcholine-induced vasodilation in norepinephrine-preconstricted CEA” value in data set [2] (setting [3]) was “does not affect”. Moreover, in data set [2] (oral dose 30 mg/kg for 4 days), the “CEA lumen area after norepinephrine and acetylcholine (acetylcholine-induced vasodilation response)” value is roughly 0.6 mm^2; the “CEA lumen diameter after norepinephrine and acetylcholine (acetylcholine-induced vasodilation response)” value is listed as “about 0.8 mm”.
`COC(=O)[C@@H](N)CCCNC(=N)N[N+](=O)[O-]` [L-NAME, N(G)-nitro-L-arginine-methyl ester]: in data set [2] (L-NAME 400 μg/mL in drinking water for 5 days, imaged day 6), the “effect of L-NAME on acetylcholine-induced vasodilation in norepinephrine-preconstricted CEA” value is reported as “inhibits this acetylcholine-induced vasodilation”.
In the case of `NC[C@H](O)c1ccc(O)c(O)c1` [norepinephrine], in data set [2] (norepinephrine infused at about 28 μg per minute, baseline about 0.6-0.7 mm^2), the “CEA lumen area during norepinephrine infusion” value is listed as “about 0.2 mm^2”. Further, the “CEA lumen diameter during norepinephrine infusion” value in data set [2] (norepinephrine infused at about 28 μg per minute, baseline about 0.8-0.9 mm) was “about 0.5 mm”.
`CCOC(=O)N1c2ccc(C(F)(F)F)cc2[C@@H](N(Cc2cc(C(F)(F)F)cc(C(F)(F)F)c2)C(=O)OC)C[C@H]1CC` [torcetrapib, ethyl (2R,4S)-4-[[3,5-bis(trifluoromethyl)benzyl](methoxycarbonyl)amino]-2-ethyl-6-(trifluoromethyl)-3,4-dihydroquinoline-1(2H)-carboxylate] gave a concentration at 4 h in data set [1] of roughly 1010 nM. In the data set on systolic blood pressure, the “systolic blood pressure in patients” value is on record as “higher systolic blood pressure”. In data set [2] (setting [3]), the “effect on acetylcholine-induced vasodilation in norepinephrine-preconstricted CEA” value is given as “inhibits the acetylcholine-induced vasodilation”; the “effect on baseline CEA lumen diameter and area (basal vascular tone)” value is recorded as “caused a measurable baseline vasoconstriction”. Moreover, the “baseline CEA lumen diameter” value in data set [2] (oral dose 30 mg/kg for 4 days, prior to norepinephrine or acetylcholine, anesthetized rabbits, vehicle group 0.85 mm) is “about 0.55 mm”. The “baseline CEA lumen area” value in data set [2] (oral dose 30 mg/kg for 4 days, prior to norepinephrine or acetylcholine, vehicle group 0.65 mm^2) is listed as “about 0.3 mm^2”. Moreover, in data set [2] (oral dose 30 mg/kg for 4 days), the “CEA lumen area after norepinephrine and acetylcholine (acetylcholine-induced vasodilation response)” value is on record as 0.2 mm^2; the “CEA lumen diameter after norepinephrine and acetylcholine (acetylcholine-induced vasodilation response)” value is given as “about 0.45 mm”.

Values taken from US8852556B2, “Animal model for evaluating vasomotor response in vivo” (Janssen Research & Development LLC, priority 2008, dated 2014).
